Laboratory results reported in patent US7632811B2, “Analogs of parathyroid hormone” (Societe de Conseils de Recherches et D'Applications …, priority 1995, dated 2009).
Non-standard residues stand in square brackets, D forms with d. Residues, ends and D or L forms follow the SMILES beside them. Cha = N[C@@H](CC1CCCCC1)C(=O)O; Ac6c = NC1(C(=O)O)CCCCC1; Nle = CCCC[C@H](N)C(=O)O; Aib = CC(C)(N)C(=O)O

molecular target: T1, PTH receptor present on SaOS-2 (human osteosarcoma cells) (Homo sapiens, UniProt Q03431); assay: Binding to PTH receptor on SaOS-2 cells (competition with mono-125I-[Nle8,18,Tyr34(3-125I)]bPTH(1-34)NH2); conditions: Table I, 2 hrs at room temperature, read-out: Kd (half maximal inhibition of binding of mono-125I-[Nle8,18, Tyr34(3-125I)]bPTH(1-34)NH2)
T1 construct: host or cells: SaOS-2 human osteosarcoma cells (intact, confluent monolayers)
T1 sequence (Q03431 27-593): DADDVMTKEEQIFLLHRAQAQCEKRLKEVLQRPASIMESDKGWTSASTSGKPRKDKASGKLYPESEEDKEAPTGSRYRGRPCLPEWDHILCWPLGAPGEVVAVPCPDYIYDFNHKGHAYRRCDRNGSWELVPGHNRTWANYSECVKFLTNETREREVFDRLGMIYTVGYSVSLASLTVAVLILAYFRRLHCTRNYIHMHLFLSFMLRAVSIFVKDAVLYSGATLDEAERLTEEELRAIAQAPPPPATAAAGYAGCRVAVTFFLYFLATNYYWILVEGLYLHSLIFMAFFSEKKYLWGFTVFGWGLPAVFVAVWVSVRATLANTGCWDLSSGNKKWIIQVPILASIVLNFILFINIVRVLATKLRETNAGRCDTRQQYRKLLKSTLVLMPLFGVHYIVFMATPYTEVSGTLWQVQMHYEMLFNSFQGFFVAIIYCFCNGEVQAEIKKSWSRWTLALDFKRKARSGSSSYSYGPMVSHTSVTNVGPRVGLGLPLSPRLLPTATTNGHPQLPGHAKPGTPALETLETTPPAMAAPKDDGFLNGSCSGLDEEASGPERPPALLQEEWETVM
Outline: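 Confluent SaOS-2 cells in 5% FBS RPMI were incubated 2 h at room temperature with 10×10^4 cpm mono-125I-[Nle8,18,Tyr34(3-125I)]bPTH(1-34)NH2 plus competing peptide at 10^−11 to 10^−4 M. After washing, cell-bound radioactivity was counted; Kd taken as half-maximal inhibition of tracer binding.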

Row | Structure (SMILES) | Kd
1 | CC[C@H](C)[C@H](NC(=O)[C@H](CCC(=O)O)NC(=O)[C@H](CO)NC(=O)[C@@H](NC(=O)[C@@H](N)CO)C(C)C)C(=O)N[C@@H](CCC(N)=O)C(=O)N[C@@H](CC(C)C)C(=O)N[C@@H](CCSC)C(=O)N[C@@H](Cc1c[nH]cn1)C(=O)N[C@@H](CC(N)=O)C(=O)N[C@@H](CC(C)C)C(=O)NCC(=O)N[C@@H](CCCCN)C(=O)N[C@@H](Cc1c[nH]cn1)C(=O)N[C@@H](CC(C)C)C(=O)N[C@@H](CC(N)=O)C(=O)N[C@@H](CO)C(=O)N[C@@H](CCSC)C(=O)N[C@@H](CCC(=O)O)C(=O)N[C@@H](CCCNC(=N)N)C(=O)N[C@H](C(=O)N[C@@H](CCC(=O)O)C(=O)N[C@@H](Cc1c[nH]c2ccccc12)C(=O)N[C@@H](CC(C)C)C(=O)N[C@@H](CCCNC(=N)N)C(=O)N[C@@H](CCCCN)C(=O)N[C@@H](CCCCN)C(=O)N[C@@H](CC1CCCCC1)C(=O)N[C@@H](CCC(N)=O)C(=O)N[C@@H](CC(=O)O)C(=O)N[C@H](C(=O)N[C@@H](Cc1c[nH]cn1)C(=O)N[C@@H](CC(N)=O)C(=O)N[C@@H](Cc1ccccc1)C(N)=O)C(C)C)C(C)C [[Cha^28]hPTH(1-34)NH2] (H-SVSEIQLMHNLGKHLNSMERVEWLRKK[Cha]QDVHNF-NH2) | 50 nM
2 | CCCC[C@H](NC(=O)[C@H](CO)NC(=O)[C@H](CC(N)=O)NC(=O)[C@H](CC(C)C)NC(=O)[C@H](Cc1c[nH]cn1)NC(=O)[C@H](CCCCN)NC(=O)CNC(=O)[C@H](CC1CCCCC1)NC(=O)[C@H](CC(N)=O)NC(=O)[C@H](Cc1c[nH]cn1)NC(=O)[C@H](CCCC)NC(=O)[C@H](CC1CCCCC1)NC(=O)[C@H](CCC(N)=O)NC(=O)[C@@H](NC(=O)[C@H](CCC(=O)O)NC(=O)[C@H](CO)NC(=O)[C@@H](NC(=O)[C@@H](N)CO)C(C)C)[C@@H](C)CC)C(=O)N[C@@H](CCC(=O)O)C(=O)N[C@@H](CCCNC(=N)N)C(=O)N[C@H](C(=O)N[C@@H](CCC(=O)O)C(=O)N[C@@H](Cc1c[nH]c2ccccc12)C(=O)N[C@@H](CC(C)C)C(=O)N[C@@H](CCCNC(=N)N)C(=O)N[C@@H](CCCCN)C(=O)N[C@@H](CCCCN)C(=O)N[C@@H](CC(C)C)C(=O)N[C@@H](CCC(N)=O)C(=O)N[C@@H](CC(=O)O)C(=O)N[C@H](C(=O)N[C@@H](Cc1c[nH]cn1)C(=O)N[C@@H](CC(N)=O)C(=O)NC(C)(C)C(N)=O)C(C)C)C(C)C [[Cha^7,11, Nle^8,18, Aib^34]hPTH(1-34)NH2] (H-SVSEIQ[Cha][Nle]HN[Cha]GKHLNS[Nle]ERVEWLRKKLQDVHN[Aib]-NH2) | 30 nM
3 | CC[C@H](C)[C@H](NC(=O)[C@H](CCC(=O)O)NC(=O)[C@H](CO)NC(=O)[C@@H](NC(=O)[C@@H](N)CO)C(C)C)C(=O)N[C@@H](CCC(N)=O)C(=O)N[C@@H](CC(C)C)C(=O)N[C@@H](CCSC)C(=O)N[C@@H](Cc1c[nH]cn1)C(=O)N[C@@H](CC(N)=O)C(=O)N[C@@H](CC(C)C)C(=O)NCC(=O)N[C@@H](CCCCN)C(=O)N[C@@H](Cc1c[nH]cn1)C(=O)N[C@@H](CC(C)C)C(=O)N[C@@H](CC(N)=O)C(=O)N[C@@H](CO)C(=O)N[C@@H](CCSC)C(=O)N[C@@H](CCC(=O)O)C(=O)N[C@@H](CCCNC(=N)N)C(=O)N[C@H](C(=O)N[C@@H](CCC(=O)O)C(=O)N[C@@H](Cc1c[nH]c2ccccc12)C(=O)N[C@@H](CC1CCCCC1)C(=O)N[C@@H](CCCNC(=N)N)C(=O)N[C@@H](CCCCN)C(=O)N[C@@H](CCCCN)C(=O)N[C@@H](CC1CCCCC1)C(=O)N[C@@H](CCC(N)=O)C(=O)N[C@@H](CC(=O)O)C(=O)N[C@@H](CC1CCCCC1)C(=O)N[C@@H](Cc1c[nH]cn1)C(=O)N[C@@H](CC(N)=O)C(=O)N[C@@H](Cc1ccccc1)C(N)=O)C(C)C [[Cha^24,28,31]hPTH(1-34)NH2] (H-SVSEIQLMHNLGKHLNSMERVEW[Cha]RKK[Cha]QD[Cha]HNF-NH2) | 1000 nM

Results, then the compound that gave them:

Row | Kd | Structure (SMILES)
4 | 5 nM | CC[C@H](C)[C@H](NC(=O)[C@H](CCC(=O)O)NC(=O)[C@H](CO)NC(=O)[C@@H](NC(=O)[C@@H](N)CO)C(C)C)C(=O)N[C@@H](CCC(N)=O)C(=O)N[C@@H](CC(C)C)C(=O)N[C@@H](CCSC)C(=O)N[C@@H](Cc1c[nH]cn1)C(=O)N[C@@H](CC(N)=O)C(=O)N[C@@H](CC(C)C)C(=O)NCC(=O)N[C@@H](CCCCN)C(=O)N[C@@H](Cc1c[nH]cn1)C(=O)N[C@@H](CC(C)C)C(=O)N[C@@H](CC(N)=O)C(=O)N[C@@H](CO)C(=O)N[C@@H](CCSC)C(=O)NC(C)(C)C(=O)N[C@@H](CCCNC(=N)N)C(=O)N[C@H](C(=O)N[C@@H](CCC(=O)O)C(=O)N[C@@H](Cc1c[nH]c2ccccc12)C(=O)N[C@@H](CC(C)C)C(=O)N[C@@H](CCCNC(=N)N)C(=O)N[C@@H](CCCCN)C(=O)N[C@@H](CCCCN)C(=O)N[C@@H](CC(C)C)C(=O)N[C@@H](CCC(N)=O)C(=O)N[C@@H](CC(=O)O)C(=O)N[C@H](C(=O)N[C@@H](Cc1c[nH]cn1)C(=O)N[C@@H](CC(N)=O)C(=O)N[C@@H](Cc1ccccc1)C(N)=O)C(C)C)C(C)C [[Aib^19]hPTH(1-34)NH2] (H-SVSEIQLMHNLGKHLNSM[Aib]RVEWLRKKLQDVHNF-NH2)
5 | 20 nM | CC[C@H](C)[C@H](NC(=O)[C@H](CCC(=O)O)NC(=O)[C@H](CO)NC(=O)[C@@H](NC(=O)[C@@H](N)CO)C(C)C)C(=O)N[C@@H](CCC(N)=O)C(=O)N[C@@H](CC1CCCCC1)C(=O)N[C@@H](CCSC)C(=O)N[C@@H](Cc1c[nH]cn1)C(=O)N[C@@H](CC(N)=O)C(=O)N[C@@H](CC(C)C)C(=O)NCC(=O)N[C@@H](CCCCN)C(=O)N[C@@H](Cc1c[nH]cn1)C(=O)N[C@@H](CC(C)C)C(=O)N[C@@H](CC(N)=O)C(=O)N[C@@H](CO)C(=O)N[C@@H](CCSC)C(=O)N[C@@H](CCC(=O)O)C(=O)N[C@@H](CCCNC(=N)N)C(=O)N[C@H](C(=O)N[C@@H](CCC(=O)O)C(=O)N[C@@H](Cc1c[nH]c2ccccc12)C(=O)N[C@@H](CC(C)C)C(=O)N[C@@H](CCCNC(=N)N)C(=O)N[C@@H](CCCCN)C(=O)N[C@@H](CCCCN)C(=O)N[C@@H](CC(C)C)C(=O)N[C@@H](CCC(N)=O)C(=O)N[C@@H](CC(=O)O)C(=O)N[C@H](C(=O)N[C@@H](Cc1c[nH]cn1)C(=O)N[C@@H](CC(N)=O)C(=O)N[C@@H](Cc1ccccc1)C(N)=O)C(C)C)C(C)C [[Cha^7]hPTH(1-34)NH2] (H-SVSEIQ[Cha]MHNLGKHLNSMERVEWLRKKLQDVHNF-NH2)

same assay, conditions: Table II, 2 hrs at room temperature, read-out: Kd (half maximal inhibition of binding of mono-125I-[Nle8,18, Tyr34(3-125I)]bPTH(1-34)NH2)

Row | Kd | Structure (SMILES)
6 | 6 nM | CC[C@H](C)[C@H](NC(=O)[C@H](CO)NC(=O)[C@H](CCCCN)NC(=O)CNC(=O)[C@H](CCCCN)NC(=O)[C@H](CC(=O)O)NC(=O)[C@H](Cc1c[nH]cn1)NC(=O)[C@H](CC(C)C)NC(=O)[C@H](CC(C)C)NC(=O)[C@H](CCC(N)=O)NC(=O)[C@H](Cc1c[nH]cn1)NC(=O)[C@H](CCC(=O)O)NC(=O)[C@H](CO)NC(=O)[C@@H](NC(=O)[C@H](C)N)C(C)C)C(=O)N[C@@H](CCC(N)=O)C(=O)N[C@@H](CC(=O)O)C(=O)N[C@@H](CC(C)C)C(=O)N[C@@H](CCCNC(=N)N)C(=O)N[C@@H](CCCNC(=N)N)C(=O)N[C@@H](CCCNC(=N)N)C(=O)N[C@@H](CCC(=O)O)C(=O)N[C@@H](CC(C)C)C(=O)NC1(C(=O)N[C@@H](CCC(=O)O)C(=O)N[C@@H](CCCCN)C(=O)N[C@@H](CC(C)C)C(=O)N[C@@H](CC(C)C)C(=O)NC(C)(C)C(=O)N[C@@H](CCCCN)C(=O)N[C@@H](CC(C)C)C(=O)N[C@@H](Cc2c[nH]cn2)C(=O)N[C@H](C(=O)N[C@@H](C)C(N)=O)[C@@H](C)O)CCCCC1 [[Glu^22,25, Leu^23,28,31, Ahc^24, Lys^26,30, Aib^29]hPTHrP(1-34)NH2] (H-AVSEHQLLHDKGKSIQDLRRREL[Ac6c]EKLL[Aib]KLHTA-NH2; N-terminus assumed)
